Values joined by “and” are separate entries in the source; they are usually repeats but may differ in a detail not shown here. Equal entries are not always repeated. Each block holds one compound with its values, some of them ahead of it.
Experiments:
[1] = instrument: DT, stepped-field
[2] = instrument: TW, calibrated with phosphatidylcholines (ESI+) and phosphatidylethanolamines (ESI-)
[3] = instrument: DT, single field, calibrated with Agilent tune mix (Agilent)
[4] = [M+Na]+; instrument: DT; stepped-field
[5] = [M+H]+; instrument: TW

SMILES: CCCCCCCCCCCCCCCC(=O)OC[C@@H](O)COP(=O)(O)OC[C@@H](O)CO [LPG(16:0)]
- collision cross section (N2) ([1]; [M-H]-): 214.3 Å²

SMILES: CCCCCC/C=C\CCCCCCCCCC(=O)O[C@H](CO)COP(=O)(O)OCCN [LPE(18:1)]
- collision cross section (N2) ([2]; [M+H]+): 214.2 Å²
- collision cross section (N2) ([2]; [M+Na]+): 219 Å²
- collision cross section (N2) ([2]; [M-H]-): 210.2 Å²
- collision cross section (N2) ([3]; [M+H]+): 215.8 Å²
- collision cross section (N2) ([3]; [M+Na]+): 222.1 Å²
- collision cross section (N2) ([3]; [M-H]-): 211.3 Å²
- collision cross section (N2) ([1]; [M-H]-): 210.1 Å²

SMILES: CCCCCCCCCCCCCCCC(=O)OC[C@@H](O)COP(=O)(O)O[C@H]1C(O)C(O)C(O)[C@@H](O)C1O (some centres not stated) [LPI(16:0)]
- collision cross section (N2) ([3]; [M-H]-): 229.1 Å²
- collision cross section (N2) ([1]; [M-H]-): 228.7 Å²

SMILES: CCN(Cc1ccc(Cl)nc1)/C(=C/[N+](=O)[O-])NC [Nitenpyram]
- collision cross section (N2) [5]: 160.32 Å²

SMILES: c1ccc([C@H]2CN3CCSC3=N2)cc1 [Levamisole]
- collision cross section (N2) [5]: 138.2 Å²

SMILES: CC(NC(=O)C(NC(=O)O)C(C)C)c1nc2ccc(F)cc2s1 (configuration not stated) [Benthiavalicarb]
- collision cross section (N2) [5]: 173.38 Å²

SMILES: O=C(O)\C3=C\N(c2cc(N1CCN(CC)CC1)c(F)cc2C3=O)C4CC4 [Enrofloxacine]
- collision cross section (N2) [5]: 194.8 Å²

SMILES: CCNc1nc(Cl)nc(NC(C)(C)C)n1 [Terbuthylazine]
- collision cross section (N2) [5]: 153.48 Å²

SMILES: CCOP(=O)(NC(C)C)Oc1ccc(S(C)(=O)=O)c(C)c1 (configuration not stated) [Fenamiphos sulfone]
- collision cross section (N2) [5]: 179.48 Å²

SMILES: CCOC(=O)NCCOc1ccc(Oc2ccccc2)cc1 [Fenoxycarb]
- collision cross section (N2) [5]: 178.44 Å²

Continued, values first:

- collision cross section (N2) ([2]; [M+Na]+): 281 Å²
- collision cross section (N2) ([2]; [M-H]-): 271.3 Å²
- collision cross section (N2) ([3]; [M+NH4]+): 283.4 Å²
- collision cross section (N2) ([1]; [M-H]-): 278 Å²
SMILES: CC/C=C\C/C=C\C/C=C\C/C=C\CCCCC(=O)OC[C@H](COP(=O)(O)OC[C@@H](O)CO)OC(=O)CCCCCCCCCCCCCCCCC [PG(36:4)]

- collision cross section (N2) ([3]; [M+H]+): 292.9 Å²
- collision cross section (N2) ([1]; [M-H]-): 296.1 Å²
SMILES: CCCCCCCCCC/C=C\CCCCCCCCCC(=O)O[C@H](COC(=O)CCCCCCCCCCCCCCC)COP(=O)(O)OC[C@H](N)C(=O)O [PS(38:1)]

- collision cross section (N2) ([1]; [M+H]+): 301 Å²
SMILES: CCCCC/C=C\C/C=C\C/C=C\CCCCCCC(=O)O[C@H](COCCCCCCCCCCCCCCCC)COP(=O)([O-])OCC[N+](C)(C)C [PC(o36:3)]

- collision cross section (N2) [4]: 290 Å²
- collision cross section (N2) ([2]; [M+H]+): 280.4 Å²
- collision cross section (N2) ([2]; [M-H]-): 271.1 Å²
- collision cross section (N2) ([3]; [M+H]+): 282.9 Å²
- collision cross section (N2) ([1]; [M-H]-): 278.4 Å² and 277.4 Å²
SMILES: CCCCC/C=C\C/C=C\CCCCCCCCCC(=O)O[C@H](COC(=O)CCCCCCC/C=C\C/C=C\CCCCC)COP(=O)(O)OCCN [PE(38:4)]

- collision cross section (N2) ([1]; [M-H]-): 268 Å²
SMILES: CCCCCCCCCC/C=C\CCCCCCCCCC(=O)O[C@H](COC(=O)CCCCCCCCCCCCC)COP(=O)(O)O [PA(18:0/18:1)]

- collision cross section (N2) ([2]; [M+Na]+): 290.5 Å²
- collision cross section (N2) ([2]; [M-H]-): 286.1 Å²
- collision cross section (N2) ([3]; [M+H]+): 296.5 Å²
- collision cross section (N2) ([3]; [M+NH4]+): 297.3 Å²
- collision cross section (N2) ([3]; [M+Na]+): 294.5 Å²
- collision cross section (N2) ([1]; [M-H]-): 297.2 Å²
SMILES: CCCCC/C=C\C/C=C\C/C=C\CCCCCCC(=O)O[C@H](COC(=O)CCCCCCC/C=C\CCCCCC)COP(=O)(O)O[C@H]1C(O)C(O)C(O)[C@@H](O)C1O (some centres not stated) [PI(36:4)]

- collision cross section (N2) ([1]; [M+H]+): 297.6 Å²
SMILES: CCCCC/C=C\C/C=C\C/C=C\CCCCCCC(=O)O[C@H](COCCCCCCCCCCCCCCCCCC)COP(=O)(O)OCCN [PE(o38:3)]

- collision cross section (N2) [5]: 269.64 Å²
SMILES: C=C1C[C@@]23CC[C@H]4[C@@](C)(CCC[C@@]4(C)C(=O)O[C@@H]4O[C@H](CO)[C@@H](O)[C@H](O)[C@H]4O)[C@@H]2CC[C@]1(O[C@@H]1O[C@H](CO)[C@@H](O)[C@H](O)[C@H]1O[C@@H]1O[C@H](CO)[C@@H](O)[C@H](O)[C@H]1O)C3 [Stevioside]

- collision cross section (N2) ([2]; [M-H]-): 278.8 Å²
- collision cross section (N2) ([3]; [M+H]+): 286.2 Å²
- collision cross section (N2) ([3]; [M+Na]+): 287.5 Å²
- collision cross section (N2) ([3]; [M-H]-): 279.1 Å²
- collision cross section (N2) ([1]; [M-H]-): 289.4 Å²
SMILES: CCCCCCCCCC/C=C\CCCCCCCCCC(=O)O[C@H](COC(=O)CCCCCCCCCCCCC)COP(=O)(O)OC[C@H](N)C(=O)O [PS(36:1)]

- collision cross section (N2) ([1]; [M-H]-): 289.2 Å²
SMILES: CCCCC/C=C\C/C=C\CCCCCCCCCCCC(=O)O[C@H](COC(=O)CCCCCCCCCCC)COP(=O)(O)O[C@H]1C(O)C(O)C(O)[C@@H](O)C1O (some centres not stated) [PI(16:1/18:1)]

- collision cross section (N2) ([1]; [M-H]-): 267.1 Å²
SMILES: CCCC/C=C\CCCCCCCC(=O)OC[C@H](COP(=O)(O)OC[C@@H](O)CO)OC(=O)CCCCCCC/C=C\CCCCCCCC [PG(16:1/16:1)]

- collision cross section (N2) [5]: 241.31 Å²
SMILES: C=C1C[C@@]23CC[C@H]4[C@@](C)(CCC[C@@]4(C)C(=O)O[C@@H]4O[C@H](CO)[C@@H](O)[C@H](O)[C@H]4O)[C@@H]2CC[C@]1(O[C@@H]1O[C@H](CO)[C@@H](O)[C@H](O)[C@H]1O)C3 [Rubusoside]

- collision cross section (N2) ([1]; [M-H]-): 264 Å²
SMILES: CCCCC/C=C\C/C=C\CCCCCCCCCCCC(=O)O[C@H](COC(=O)CCCCCCCCCCCCC)COP(=O)(O)O [PA(18:1/18:1)]

Source: the C3SDB collision cross section collection
